Source: article PMC9727700 (Redox Biology, 2022)

Key:
SH-SY5Y cells [1] = assay: Intracellular 4-HNE levels in fatty acid-treated SH-SY5Y cells; type: cell-based, human; details: 50 μM
SH-SY5Y cells [2] = assay: Rotenone-treated SH-SY5Y cells: mitochondrial membrane potential; type: cell-based, human; details: rotenone 1 μM; HY08 0.3 μM; NAC 1 μM

Compound | intracellular 4-HNE production (SH-SY5Y cells [1]) | rotenone-induced mitochondrial membrane potential loss and cell death (SH-SY5Y cells [2])
CCCCC/C=C\C/C=C\C/C=C\C/C=C\CCCC(=O)O [AA, arachidonic acid] | significantly enhanced | 
CC(=O)N[C@@H](CS)C(=O)O [NAC, N-Acetyl cysteine] |  | exerted inhibitory effects
